The values below come from patent publication US8569302B2, “Inhibitors of flaviviridae viruses” (Gilead Sciences, Inc., priority 2009, dated 2013).

Broadly, the inhibition is the drop in the measured response relative to a control, in per cent. A high value points to a strong effect. As usually defined, the % inhibition is the change of the read-out against control, counted positive when it falls.

The first assay has as its system human hepatoma Huh-7 cell line harboring a HCV replicon. The experiment in a line: HCV replicon assay (inhibition of viral replication, luciferase readout). The note with it: Hepatitis C virus, 72 h, Huh-7 HCV replicon cells, 3 days incubation. Format: cell-based. In short, it runs like this:
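Read-outs: luciferase luminescence for replication inhibition, corrected by ITMN-191 (100% inhibition) wells, and calcein AM fluorescence for cytotoxicity. Cells were treated for 3 days at 37 °C with ten 3-fold compound dilutions in 0.44% final DMSO. Percent inhibition relative to DMSO was fitted with a Hill equation to give EC50 and CC50.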
On the technique in general: In antiviral work, replicon cells carry a viral genome segment that copies itself.
As for `CC(C)(C)C#Cc1cc(N(C(=O)[C@H]2CC[C@H](C)CC2)[C@H]2CC[C@H](Sc3ccc4ccccc4n3)CC2)c(C(=O)O)s1` [Compound 91, 5-(3,3-Dimethylbut-1-ynyl)-3-(4-methyl-N-(4-(quinolin-2-ylthio)cyclohexyl)cyclohexanecarboxamido)thiophene-2-carboxylic acid], the inhibition at 2 µM amounted to 99.8%. In turn, `C[C@@H](CCOc1ccc(O)nn1)N(c1cc(C#CC(C)(C)C)sc1C(=O)O)C(=O)[C@H]1CC[C@H](C)CC1` [Compound 63, 5-(3,3-dimethyl-but-1-ynyl)-3-[[3-(6-hydroxy-pyridazin-3-yloxy)-1-(S)-methyl-propyl]-(trans-4-methyl-cyclohexanecarbonyl)-amino]-thiophene-2-carboxylic acid] showed an inhibition at 2 µM of 100%. In turn, `CCc1cnc(O[C@H]2CC[C@H](N(c3cc(C#CC(C)(C)C)sc3C(=O)O)C(=O)[C@H]3CC[C@H](C)CC3)CC2)nc1` [Compound 148, 5-(3,3-Dimethylbut-1-ynyl)-3-(N-(4-(5-ethylpyrimidin-2-yloxy)cyclohexyl)-4-methylcyclohexanecarboxamido)thiophene-2-carboxylic acid] registered an inhibition at 2 µM of 96.6%. Molecule `CC(C)(C)C#Cc1cc(N(C(=O)[C@H]2CC[C@H](C)CC2)[C@H]2CC[C@@H](Oc3cnc(Cl)cn3)CC2)c(C(=O)O)s1` [Compound 182, 3-(N-(4-(5-Chloropyrazin-2-yloxy)cyclohexyl)-4-methylcyclohexanecarboxamido)-5-(3,3-dimethylbut-1-ynyl)thiophene-2-carboxylic acid] returned an inhibition at 2 µM of 99%. On the same count and under the same terms, the same measure for `CC1=CCC(C(=O)N(c2cc(C#CC(C)(C)C)sc2C(=O)O)[C@H]2CC[C@H](O[C@H]3CCOC3)CC2)[C@H](C)C1` (stereo partly drawn) [Compound 304, 5-(3,3-dimethyl-but-1-ynyl)-3-{(4,6R-dimethyl-cyclohex-3-enecarbonyl)-[4-(tetrahydro-furan-3S-yloxy)-trans-cyclohexyl]-amino}-thiophene-2-carboxylic acid]: 100%; for `Cc1ccc(O[C@H]2CC[C@H](N(c3cc(C#CC(C)(C)C)sc3C(=O)O)C(=O)[C@H]3CC[C@H](C)CC3)CC2)cn1` [Compound 7, 5-(3,3-Dimethyl-but-1-ynyl)-3-{(trans-4-methyl-cyclohexanecarbonyl)-[trans-4-(6-methyl-pyridin-3-yloxy)-cyclohexyl]-amino}-thiophene-2-carboxylic acid]: 99.8%.

In turn, `CN(C)c1ccc(O[C@H]2CC[C@H](N(c3cc(C#CC(C)(C)C)sc3C(=O)O)C(=O)[C@H]3CC[C@H](C)CC3)CC2)nn1` [Compound 160, 3-(N-(4-(6-(Dimethylamino)pyridazin-3-yloxy)cyclohexyl)-4-methylcyclohexanecarboxamido)-5-(3,3-dimethylbut-1-ynyl)thiophene-2-carboxylic acid] gave an inhibition at 2 µM of 99.9%. `CC(C)(C)C#Cc1cc(N(C(=O)[C@H]2CC[C@H](C)CC2)C2CCN(S(=O)(=O)c3nnc[nH]3)CC2)c(C(=O)O)s1` [Compound 202, 5-(3,3-Dimethyl-but-1-ynyl)-3-{(4-methyl-cyclohexanecarbonyl)-[1-(4H-[1,2,4]triazole-3-sulfonyl)-piperidin-4-yl]-amino}-thiophene-2-carboxylic acid] returned an inhibition at 2 µM of 96.4%. Molecule `CC(C)(C#Cc1cc(N(C(=O)[C@H]2CC[C@H](C)CC2)[C@H]2CC[C@H](Oc3ccc(O)nn3)CC2)c(C(=O)O)s1)C(F)(F)F` [Compound 343, 3-((1r,4R)—N-((1r,4R)-4-(6-hydroxypyridazin-3-yloxy)cyclohexyl)-4-methylcyclohexanecarboxamido)-5-(4,4,4-trifluoro-3,3-dimethylbut-1-ynyl)thiophene-2-carboxylic acid] yielded an inhibition at 2 µM of 100%.

With `CC(C)(C)C#Cc1cc(N(C(=O)[C@H]2CC[C@H](C)CC2)[C@H]2CC[C@H](Oc3ccc(N4CCCC4)nn3)CC2)c(C(=O)O)s1` [Compound 159, 5-(3,3-Dimethylbut-1-ynyl)-3-(4-methyl-N-(4-(6-(pyrrolidin-1-yl)pyridazin-3-yloxy)cyclohexyl)cyclohexanecarboxamido)thiophene-2-carboxylic acid], the inhibition at 2 µM is 99.8%.

Regarding `CC(C)(C)C#Cc1cc(N(C(=O)[C@H]2CC[C@H](C)CC2)C2CCN(S(=O)(=O)c3ccccn3)CC2)c(C(=O)O)s1` [Compound 209, 5-(3,3-Dimethyl-but-1-ynyl)-3-{(4-methyl-cyclohexanecarbonyl)-[1-(pyridine-2-sulfonyl)-piperidin-4-yl]-amino}-thiophene-2-carboxylic acid], the inhibition at 2 µM was 100%.

The molecule `CC1CCC(C(=O)N(c2cc(C#CC(C)(C)COC3CCCCO3)sc2C(=O)O)C2CCC(Oc3ccccn3)CC2)CC1` (stereo not drawn) [Compound 311, 5-[3,3-Dimethyl-4-(tetrahydro-pyran-2-yloxy)-but-1-ynyl]-3-{(4-methyl-cyclohexanecarbonyl)-[4-(pyridin-2-yloxy)-cyclohexyl]-amino}-thiophene-2-carboxylic acid] showed an inhibition at 2 µM of 95.2%. In the case of `CC(C)(C)C#Cc1cc(N(C(=O)[C@H]2CC[C@H](C)CC2)[C@H]2CC[C@H](OC3CCNCC3)CC2)c(C(=O)O)s1` [Compound 223, 5-(3,3-dimethylbut-1-ynyl)-3-(4-methyl-N-(4-(piperidin-4-yloxy)cyclohexyl)cyclohexanecarboxamido)thiophene-2-carboxylic acid], the inhibition at 2 µM came out at 100%. On to `CC(C)(C)C#Cc1cc(N(C(=O)[C@H]2CC[C@H](C)CC2)[C@H]2C[C@H](Oc3cccnc3)C2)c(C(=O)O)s1` [Compound 21, 5-(3,3-Dimethyl-but-1-ynyl)-3-[(trans-4-methyl-cyclohexanecarbonyl)-{trans-3-(pyridin-3-yloxy)-cyclobutyl]-amino}-thiophene-2-carboxylic acid], for which 2 µM produced 98.8% inhibition. In turn, `CC(C)(C)C#Cc1cc(N(C(=O)[C@H]2CC[C@H](C)CC2)[C@H]2CC[C@H](Oc3ncccn3)CC2)c(C(=O)O)s1` [Compound 4, 5-(3,3-Dimethyl-but-1-ynyl)-3-{(trans-4-methyl-cyclohexanecarbonyl)-[trans-4-(pyrimidin-2-yloxy)-cyclohexyl]-amino}-thiophene-2-carboxylic acid] had an inhibition at 2 µM of 99.9%.

On to `CC(C)(C)C#Cc1cc(N(C(=O)[C@H]2CC[C@H](C)CC2)[C@H]2CC[C@@H](Oc3ccnnc3)CC2)c(C(=O)O)s1` [Compound 183, 5-(3,3-Dimethylbut-1-ynyl)-3-(4-methyl-N-(4-(pyridazin-4-yloxy)cyclohexyl)cyclohexanecarboxamido)thiophene-2-carboxylic acid], for which the inhibition at 2 µM was found to be 100%. The molecule `CC(C)(C)C#Cc1cc(N(C(=O)[C@H]2CC[C@H](C)CC2)[C@H]2CCN(S(=O)(=O)c3ccsc3)C2)c(C(=O)O)s1` [Compound 211, 5-(3,3-Dimethyl-but-1-ynyl)-3-{(4-methyl-cyclohexanecarbonyl)-[1-(thiophene-3-sulfonyl)-pyrrolidin-3-yl]-amino}-thiophene-2-carboxylic acid] returned an inhibition at 2 µM of 99.7%. Regarding `Cn1nnnc1[S+]([O-])[C@H]1CC[C@H](N(c2cc(C#CC(C)(C)C)sc2C(=O)O)C(=O)[C@H]2CC[C@H](C)CC2)CC1` (stereo partly drawn) [Compound 111, 5-(3,3-Dimethylbut-1-ynyl)-3-((1r,4S)-4-methyl-N-(4-((R)-1-methyl-1H-tetrazol-5-ylsulfinyl)cyclohexyl)cyclohexanecarboxamido)thiophene-2-carboxylic acid], 2 µM produced 99.8% inhibition. As to `CC(C)(C)C#Cc1cc(N(C(=O)[C@H]2CC[C@H](C)CC2)[C@H]2CC[C@H](Sc3ccccn3)CC2)c(C(=O)O)s1` [Compound 99, 5-(3,3-Dimethylbut-1-ynyl)-3-(4-methyl-N-(4-(pyridin-2-ylthio)cyclohexyl)cyclohexanecarboxamido)thiophene-2-carboxylic acid], the inhibition at 2 µM is 97.7%. The molecule `CC(C)(C)C#Cc1cc(N(C(=O)[C@H]2CC[C@H](C)CC2)[C@H]2CC[C@H](O[C@H]3COC[C@H]3O)CC2)c(C(=O)O)s1` [Compound 317, 5-(3,3-dimethyl-but-1-ynyl)-3-[[4-(4-cis-hydroxy-tetrahydro-furan-3-yloxy)-cyclohexyl]-(4-methyl-cyclohexanecarbonyl)-amino]-thiophene-2-carboxylic acid] gave an inhibition at 2 µM of 100%. As for `CC(C)(C)C#Cc1cc(N(C(=O)[C@H]2CC[C@H](C)CC2)[C@H]2CC[C@H](Sc3ncc[nH]3)CC2)c(C(=O)O)s1` [Compound 94, 3-(N-(4-(1H-Imidazol-2-ylthio)cyclohexyl)-4-methylcyclohexanecarboxamido)-5-(3,3-dimethylbut-1-ynyl)thiophene-2-carboxylic acid], testing at 2 µM gave an inhibition of 99.9%. On the same count and under the same terms, for `CC(C)(C)C#Cc1cc(N(C(=O)[C@H]2CC[C@H](C)CC2)[C@H]2C[C@H](Oc3ncccn3)C2)c(C(=O)O)s1` [Compound 23, 5-(3,3-Dimethyl-but-1-ynyl)-3-{(trans-4-methyl-cyclohexanecarbonyl)-[trans-3-(pyrimidin-2-yloxy)-cyclobutyl]-amino}-thiophene-2-carboxylic acid] the value was 99.5%; for `CC1CCC(C(=O)N(CCOc2ccccn2)c2cc(C#CC(C)(C)C)sc2C(=O)O)CC1` (stereo not drawn) [Compound 139, 5-(3,3-dimethyl-but-1-ynyl)-3-{(4-methyl-cyclohexanecarbonyl)-[3-(pyridin-2-yloxy)-ethyl]-amino}-thiophene-2-carboxylic acid], 96.4%.

The same assay, now with this note: Huh-7 HCV replicon cells, 3 days incubation.
As for “5-(3,3-dimethylbut-1-ynyl)-3-((1r,4R)-4-methyl-N-((1s,4S)-4-(oxetan-3-yloxy)cyclohexyl)cyclohexanecarboxamido)-5-(2-(1-(trifluoromethyl)cyclopropyl)ethynyl)thiophene-2-carboxylic acid [Compound 347]”, the “% inhibition at 2μM” value is 99.97%.
